# Data as given in PubChem BioAssay (NCI).
# “And” between values parts separate entries of the source, which are not always exact repeats. Equal entries are not always repeated.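 Each compound was tested at five concentrations against cells in 96-well plates for 48 hours. GI50: concentration for 50% inhibition of growth. TGI is the concentration that stops growth completely.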
# How the values were obtained:
# Test in all cases: NCI-60 cell line screen, 48 h
# OVCAR-3 ovarian = tested on: OVCAR-3 ovarian
# OVCAR-4 ovarian = tested on: OVCAR-4 ovarian
# SNB-78 CNS = tested on: SNB-78 CNS
# M19-MEL melanoma = tested on: M19-MEL melanoma
# LXFL 529 NSCLC = tested on: LXFL 529 NSCLC
# HL-60(TB) leukemia = tested on: HL-60(TB) leukemia
# T-47D breast = tested on: T-47D breast
# NCI-H226 lung = tested on: NCI-H226 lung
# DMS 273 small cell lung = tested on: DMS 273 small cell lung
# DMS 114 small cell lung = tested on: DMS 114 small cell lung
structure (smiles),measurement,setting,value
N=C1C(=N)c2ccccc2-c2ccccc21.[Cl-].[Ru+2].c1ccc(-c2ccccn2)nc1.c1ccc(-c2ccccn2)nc1,TGI,OVCAR-3 ovarian,> 100 µM
same,TGI,OVCAR-4 ovarian,> 100 µM
same,GI50,SNB-78 CNS,> 100 µM
same,TGI,SNB-78 CNS,> 100 µM
same,GI50,M19-MEL melanoma,> 100 µM
same,TGI,M19-MEL melanoma,> 100 µM
same,GI50,LXFL 529 NSCLC,> 100 µM
same,TGI,LXFL 529 NSCLC,> 100 µM
same,TGI,HL-60(TB) leukemia,> 100 µM
CC(=O)Nc1ccc2c(C)c3c(nc2n1)[nH]c1ccccc13,TGI,OVCAR-3 ovarian,65.5 µM
same,TGI,OVCAR-4 ovarian,> 100 µM
same,TGI,T-47D breast,55.5 µM
same,TGI,NCI-H226 lung,67.9 µM
Cc1ccc(C(=N)c2ccccc2Cc2cccc3ccccc23)c2ccccc12,TGI,OVCAR-3 ovarian,> 100 µM
same,TGI,OVCAR-4 ovarian,> 100 µM
same,TGI,T-47D breast,> 100 µM
same,TGI,NCI-H226 lung,> 100 µM
same,TGI,HL-60(TB) leukemia,> 100 µM
C#CCNC(CSSCC(N)C(=O)O)C(=O)O (stereo not given),TGI,OVCAR-3 ovarian,> 100 µM
same,TGI,OVCAR-4 ovarian,> 100 µM
same,TGI,T-47D breast,> 100 µM
same,TGI,NCI-H226 lung,> 100 µM
c1ncn(C23C4C5C6C4C2C6C53)n1 (stereo not given),TGI,T-47D breast,> 100 µM
same,TGI,NCI-H226 lung,> 100 µM
same,TGI,HL-60(TB) leukemia,> 100 µM
COC(=O)[C@H]1C=NN[C@@H]1C(=O)N1[C@H]2CC3CC[C@@]2(CS1(=O)=O)C3(C)C,TGI,OVCAR-4 ovarian,> 100 µM
same,TGI,NCI-H226 lung,> 100 µM
same,TGI,HL-60(TB) leukemia,> 100 µM
S=C1c2ccc(Cl)cc2-n2cnnc2C2CSCN12 (stereo not given),TGI,OVCAR-3 ovarian,> 100 µM
same,TGI,OVCAR-4 ovarian,> 100 µM
same,TGI,T-47D breast,> 100 µM
same,TGI,NCI-H226 lung,> 100 µM
COC1CC(N)(c2ccccc2)C(O)C(C)O1 (stereo not given),TGI,OVCAR-3 ovarian,> 100 µM
same,TGI,OVCAR-4 ovarian,> 100 µM
same,TGI,T-47D breast,> 100 µM
same,TGI,NCI-H226 lung,> 100 µM
same,TGI,HL-60(TB) leukemia,> 100 µM
O=C(Nc1ccccc1)N(C1=NCC(CI)S1)c1ccc(F)c(F)c1 (stereo not given),TGI,OVCAR-3 ovarian,> 100 µM
same,TGI,OVCAR-4 ovarian,> 100 µM
same,TGI,T-47D breast,> 100 µM
same,TGI,HL-60(TB) leukemia,79.4 µM
Cc1ccc2nc(SCC(=O)N=Nc3c(O)[nH]c4ccccc34)n(-c3ccccc3)c(=O)c2c1,TGI,OVCAR-3 ovarian,41.9 µM
same,TGI,OVCAR-4 ovarian,25.9 µM
same,TGI,T-47D breast,34 µM
same,TGI,NCI-H226 lung,35.2 µM
same,TGI,HL-60(TB) leukemia,62.2 µM
COc1cccc(N2C(=O)CSC2c2cccc(Oc3ccccc3)c2)c1 (stereo not given),TGI,OVCAR-3 ovarian,92.9 µM
same,TGI,OVCAR-4 ovarian,87.5 µM
same,TGI,T-47D breast,> 100 µM
same,TGI,NCI-H226 lung,69.1 µM
same,TGI,HL-60(TB) leukemia,66.5 µM
CC12CCC(CC(=O)/C1=C(/Br)I)C2(C)C (stereo not given),TGI,OVCAR-3 ovarian,26.9 µM
same,TGI,OVCAR-4 ovarian,29.1 µM
same,TGI,T-47D breast,46.4 µM
same,TGI,NCI-H226 lung,29.9 µM
same,TGI,HL-60(TB) leukemia,12 µM
COC(=O)Cc1cc(O)c2c(c1O)C(=O)c1ccccc1C2=O,TGI,OVCAR-3 ovarian,> 100 µM
same,TGI,DMS 273 small cell lung,> 100 µM
same,TGI,OVCAR-4 ovarian,> 100 µM
same,TGI,SNB-78 CNS,> 100 µM
same,TGI,T-47D breast,> 100 µM
same,TGI,M19-MEL melanoma,> 100 µM
same,TGI,DMS 114 small cell lung,> 100 µM
same,TGI,LXFL 529 NSCLC,> 100 µM
same,TGI,NCI-H226 lung,> 100 µM
same,TGI,HL-60(TB) leukemia,> 100 µM
COc1ccc(N2C(=O)C3c4[nH]c5ccc(OCc6ccccc6)cc5c4C4CCC(c5ccccc5)CC4C3C2=O)cc1 (stereo not given),TGI,OVCAR-3 ovarian,> 89 µM
same,TGI,OVCAR-4 ovarian,3.04 µM
same,TGI,T-47D breast,77.3 µM
same,TGI,NCI-H226 lung,> 83.8 µM
same,TGI,HL-60(TB) leukemia,33.3 µM
COc1cc(/C=C2\C(=O)N(c3cccc([N+](=O)[O-])c3)C(c3ccccc3)S2(=O)=O)cc(OC)c1OC (stereo not given),TGI,OVCAR-3 ovarian,> 100 µM
same,TGI,OVCAR-4 ovarian,> 100 µM
same,TGI,T-47D breast,> 100 µM
same,TGI,NCI-H226 lung,> 100 µM
same,TGI,HL-60(TB) leukemia,> 100 µM
CC(N=NNc1ccc(-c2nc3ccccc3[nH]2)cc1)C(=O)O (stereo not given),TGI,OVCAR-3 ovarian,54.7 µM
same,TGI,OVCAR-4 ovarian,> 100 µM
same,TGI,T-47D breast,> 100 µM
same,TGI,NCI-H226 lung,> 100 µM
same,TGI,HL-60(TB) leukemia,> 100 µM
O=C(O)CCc1nc2c(n1-c1ccccc1)C(=O)c1ccccc1C2=O,TGI,OVCAR-3 ovarian,> 100 µM
same,TGI,OVCAR-4 ovarian,> 100 µM
same,TGI,T-47D breast,> 100 µM
same,TGI,NCI-H226 lung,> 100 µM
same,TGI,HL-60(TB) leukemia,> 100 µM
O=c1[nH]/c(=C/c2ccc(OCc3ccccc3)cn2)c(=O)[nH]/c1=C/c1ccccc1,TGI,OVCAR-3 ovarian,> 78.6 µM
same,TGI,OVCAR-4 ovarian,> 100 µM
same,TGI,T-47D breast,> 100 µM
C=CCOC(=O)N1c2ccc(O[Si](C)(C)C(C)(C)C)cc2[C@@]23O[C@@]24[C@@H]1C#C/C=C\C#C[C@]3(O)C(OC)(OC)C[C@@H]4C,TGI,OVCAR-3 ovarian,> 100 µM
same,TGI,OVCAR-4 ovarian,> 100 µM
same,TGI,T-47D breast,> 100 µM
same,TGI,NCI-H226 lung,> 100 µM
same,TGI,HL-60(TB) leukemia,> 100 µM
N#Cc1c(-c2ccc(Cl)cc2)c2c(nn3c4ccc5ccccc5c4nnc23)[nH]c1=O,TGI,OVCAR-3 ovarian,3.62 µM
same,TGI,OVCAR-4 ovarian,21.6 µM
same,TGI,T-47D breast,2.66 µM
same,TGI,NCI-H226 lung,> 52.5 µM
same,TGI,HL-60(TB) leukemia,> 100 µM
C=CCn1c(=O)c(C)cn(COCCO)c1=O,TGI,OVCAR-3 ovarian,> 100 µM
same,TGI,T-47D breast,> 100 µM
same,TGI,NCI-H226 lung,> 100 µM
N#CCCN(CCC#N)c1ccc(/C=C2\N=C(c3ccccc3)N(c3ccc(F)cc3)C2=O)cc1,TGI,OVCAR-3 ovarian,> 100 µM
same,TGI,OVCAR-4 ovarian,> 100 µM
same,TGI,T-47D breast,> 100 µM
same,TGI,NCI-H226 lung,> 100 µM
OC1[C@@H]2[C@@H](O)CCCN2C[C@@H](O)[C@H]1O (stereo not given in full),TGI,OVCAR-3 ovarian,> 100 µM
same,TGI,OVCAR-4 ovarian,> 100 µM
same,TGI,T-47D breast,> 100 µM
same,TGI,NCI-H226 lung,> 100 µM
same,TGI,HL-60(TB) leukemia,> 100 µM
Fc1ccc(C(OCCN2CCN(CCCc3ccccc3)CC2)c2ccc(F)cc2)cc1,TGI,OVCAR-3 ovarian,15.9 µM
same,TGI,OVCAR-4 ovarian,15.8 µM
same,TGI,T-47D breast,19.3 µM
same,TGI,NCI-H226 lung,13.9 µM
same,TGI,HL-60(TB) leukemia,16 µM
C[C@H](c1ccccc1)N1C(=O)[C@@H](O)[C@H]1[C@H](CO)OCc1ccccc1,TGI,OVCAR-3 ovarian,> 100 µM
same,TGI,OVCAR-4 ovarian,> 100 µM
same,TGI,NCI-H226 lung,> 100 µM
CC(=O)c1c(-c2cccc3ccccc23)c(C#N)c(=S)n(C2OC(CO)C(O)C(O)C2O)c1C (stereo not given),TGI,OVCAR-3 ovarian,> 100 µM
same,TGI,OVCAR-4 ovarian,> 100 µM
same,GI50,T-47D breast,> 100 µM and 27.3 µM
same,TGI,T-47D breast,> 100 µM
same,TGI,NCI-H226 lung,> 100 µM
same,GI50,HL-60(TB) leukemia,> 100 µM and 42.1 µM
same,TGI,HL-60(TB) leukemia,> 100 µM
C[C@@H]1OC(=O)C[C@H]2CC(=O)N(CCC3CN(C(=O)OCc4ccccc4)c4ccccc43)C[C@@H]21 (stereo not given in full),TGI,OVCAR-3 ovarian,> 100 µM
same,TGI,OVCAR-4 ovarian,> 100 µM
same,TGI,T-47D breast,> 100 µM
Nc1n(CC(=O)c2ccccc2)nc2sc(-c3ccccc3)n[n+]12,TGI,OVCAR-3 ovarian,38.9 µM
same,TGI,OVCAR-4 ovarian,> 100 µM
same,TGI,T-47D breast,> 100 µM
same,TGI,NCI-H226 lung,52.2 µM
CC(=O)NC1C(OCc2ccccc2)OC(CO)C(O)C1OCC(=O)N1CCCC1C(=O)N[C@@H](CCC(=O)NCCCCNc1c2ccccc2nc2cccc([N+](=O)[O-])c12)C(N)=O (stereo not given in full),TGI,OVCAR-3 ovarian,61.9 µM
same,TGI,OVCAR-4 ovarian,> 100 µM
same,TGI,T-47D breast,> 100 µM
same,TGI,NCI-H226 lung,> 100 µM
CN1CCC(CNc2cc(C3(C(=O)Nc4cc(C(=O)Nc5ccc(Cl)c(C(F)(F)F)c5)ccc4F)CC3)ncn2)CC1,GI50,OVCAR-3 ovarian,2.57 µM
same,TGI,OVCAR-3 ovarian,8.44 µM
same,GI50,OVCAR-4 ovarian,13.6 µM
same,TGI,OVCAR-4 ovarian,39.5 µM
same,GI50,T-47D breast,4.14 µM
same,TGI,T-47D breast,26.8 µM
same,GI50,NCI-H226 lung,13.6 µM
same,TGI,NCI-H226 lung,36.1 µM
CC(C)/C(Cl)=N/OC(=O)Nc1ccc(Br)cc1,TGI,OVCAR-3 ovarian,9.5 µM
same,TGI,OVCAR-4 ovarian,31.8 µM
same,TGI,T-47D breast,9.95 µM
same,TGI,NCI-H226 lung,30.5 µM
same,TGI,HL-60(TB) leukemia,7.62 µM
